Measured values: patent US10676721B2, “Bacteriophages expressing antimicrobial peptides and uses thereof” (priority 2009, dated 2020)

Legend:
E. coli [1] = experiment: Exponential phase OD600 AMP killing assay on E. coli; format: cell-based, Escherichia coli; settings: concentration not singled out (192 and 640 μg/mL tested)
Method: (§1) 1. Inoculate the appropriate host strain in LB medium with the appropriate selective marker and incubate with shaking at 37° C. overnight. 2. Re-dilute the culture 1:5000 into LB with the appropriate selective marker and grow at 300 rpm and 37° C. to an OD600 between 0.2 and 0.4.3. Add the appropriate amount of AMP or bacteriophage to the wells, running at least duplicate samples, preferably triplicates, and always carrying a no treatment control to control for phage contamination. 4. Sample points every 5 minutes using an automated 96-well assay plate capable heated and shaking plate reader.
(§2) The inventors tested a panel of AMPs, shown in Table 3 to assess which AMP has the greatest bacteriocidality against both E. coli and S. aureus. Cultures were grown to an optical density measured at 600 nm between 0.3-0.6 and then the AMPs were added in the respective concentrations. The decrease in OD600 is assessed as the killing of bacterial cells by the AMP, if the OD600 drops, other results cannot be inferred, as the information gained is from the OD600 is limited. The abbreviation SA denotes tests on Staphylococcus aureus, whereas EC denotes Escherichia coli bacteria. Experiments were run in duplicate. The nomenclature of these graphs follows the pattern: Strain.AMP.Concentration(μg/mL).replicate #(1 or 2). […]

[2] = Toxicity of AMPs (Table 3, method not described); design: unit not given here; settings: two values per AMP
S. aureus [3] = experiment: Exponential phase OD600 AMP killing assay on S. aureus; format: cell-based, Staphylococcus aureus; settings: concentration not singled out (192 and 640 μg/mL tested)
Method: as §1, §2

S. aureus [4] = experiment: MIC of AMPs / enzyme against S. aureus; format: cell-based, Staphylococcus aureus; settings: Table 3; two values per AMP
E. coli [5] = experiment: MIC of AMPs against E. coli; format: cell-based, Escherichia coli; settings: Table 3; two values per AMP

J589_A7: AMP, RLCRIVVIRVCR (SEQ ID NO: 10) (listed as Bos taurus)
bacteriocidal / bacteriostatic action on E. coli (OD600) (E. coli [1]): intermediate bacteriocidal action | Toxicity [2]: 256 | bacteriocidal / bacteriostatic action on S. aureus (OD600) (S. aureus [3]): no effects | MIC S. aureus (S. aureus [4]): 64 µg/mL | MIC E. coli (E. coli [5]): 64 µg/mL
